# Key:
# Assay type in all cases: cell-based
# S. aureus = assay: MIC values, S. aureus (Tables 1-4)
# H. flu = tested on: H. flu
# E. coli = assay: MIC values, E. coli (Tables 1-4)
# E. faecalis = assay: MIC values, E. faecalis (Tables 1-4)
# S. pneumo. = assay: MIC values, S. pneumo. (Tables 1-4)
smiles,measurement,setting,value
COC1C=COC2(C)Oc3c(C)c(O)c4c(=O)c(c5n(C)c6cc(N7CC(C)NC(C)C7)ccc6nc-5c4c3C2=O)NC(=O)C(C)=CC=CC(C)C(O)C(C)C(O)C(C)C(O)C1C (mixture of isomers) [Compound 97],MIC S. aureus,S. aureus,1 µg/mL
same,MIC H. flu,H. flu,4 µg/mL
same,MIC E. coli,E. coli,>8 µg/mL
same,MIC E. faecalis,E. faecalis,>8 µg/mL
same,MIC S. pneumo.,S. pneumo.,2000 ng/mL
COC1C=COC2(C)Oc3c(C)c(O)c4c(=O)c(c5oc6cc(N7CC(C)CC(C)C7)cc(O)c6nc-5c4c3C2=O)NC(=O)C(C)=CC=CC(C)C(O)C(C)C(O)C(C)C(O)C1C (mixture of isomers) [Compound 116],MIC S. aureus,S. aureus,0.008 µg/mL
same,MIC H. flu,H. flu,0.12 µg/mL
same,MIC E. faecalis,E. faecalis,1 µg/mL
same,MIC S. pneumo.,S. pneumo.,2 ng/mL
COC1C=COC2(C)Oc3c(C)c(O)c4c(=O)c(c5oc6cc(N7CC(C)OC(C)C7)cc(O)c6nc-5c4c3C2=O)NC(=O)C(C)=CC=CC(C)C(O)C(C)C(O)C(C)C(O)C1C (mixture of isomers) [Compound 117],MIC S. aureus,S. aureus,0.015 µg/mL
same,MIC H. flu,H. flu,0.25 µg/mL
same,MIC E. coli,E. coli,8 µg/mL
same,MIC E. faecalis,E. faecalis,0.25 µg/mL
same,MIC S. pneumo.,S. pneumo.,2 ng/mL
COC1C=COC2(C)Oc3c(C)c(O)c4c(=O)c(c5oc6cc(N7CCC(F)C7)ccc6nc-5c4c3C2=O)NC(=O)C(C)=CC=CC(C)C(O)C(C)C(O)C(C)C(O)C1C (mixture of isomers) [Compound 122],MIC S. aureus,S. aureus,0.03 µg/mL
same,MIC H. flu,H. flu,0.06 µg/mL
same,MIC E. coli,E. coli,4 µg/mL
same,MIC E. faecalis,E. faecalis,0.5 µg/mL
same,MIC S. pneumo.,S. pneumo.,15 ng/mL
CCOC(=O)NC1CCN(c2cc(O)c3nc4c5c6c7c(C)c(O)c5c(=O)c(c-4oc3c2)NC(=O)/C(C)=C\C=C\[C@H](C)[C@H](O)[C@@H](C)[C@@H](O)[C@@H](C)[C@H](OC(C)=O)[C@H](C)[C@@H](OC)/C=C/O[C@@](C)(O7)C6=O)CC1 [Compound 1],MIC S. aureus,S. aureus,0.008 µg/mL
same,MIC H. flu,H. flu,2 µg/mL
same,MIC E. coli,E. coli,>8 µg/mL
same,MIC E. faecalis,E. faecalis,2 µg/mL
same,MIC S. pneumo.,S. pneumo.,0.25 ng/mL
COC1C=COC2(C)Oc3c(C)c(O)c4c(=O)c(c5oc6cc(N7CC8C(C7)C8NC(=O)OCC[Si](C)(C)C)cc(O)c6nc-5c4c3C2=O)NC(=O)C(C)=CC=CC(C)C(O)C(C)C(O)C(C)C(OC(C)=O)C1C (stereo not drawn) [Compound 2],MIC S. aureus,S. aureus,1 µg/mL
same,MIC H. flu,H. flu,>8 µg/mL
same,MIC E. coli,E. coli,>8 µg/mL
same,MIC E. faecalis,E. faecalis,>8 µg/mL
same,MIC S. pneumo.,S. pneumo.,30 ng/mL
CCOC(=O)NC1CCN(c2cc(O)c3nc4c5c6c7c(C)c(O)c5c(=O)c(c-4oc3c2)NC(=O)/C(C)=C\C=C\[C@H](C)[C@H](O)[C@@H](C)[C@@H](O)[C@@H](C)[C@H](O)[C@H](C)[C@@H](OC)/C=C/O[C@@](C)(O7)C6=O)CC1 [Compound 3],MIC S. aureus,S. aureus,0.03 µg/mL
same,MIC H. flu,H. flu,0.25 µg/mL
same,MIC E. coli,E. coli,4 µg/mL
same,MIC E. faecalis,E. faecalis,0.12 µg/mL
same,MIC S. pneumo.,S. pneumo.,0.5 ng/mL
COC1C=COC2(C)Oc3c(C)c(O)c4c(=O)c(c5oc6cc(N7CC8C(N)C8C7)cc(O)c6nc-5c4c3C2=O)NC(=O)C(C)=CC=CC(C)C(O)C(C)C(O)C(C)C(OC(C)=O)C1C (stereo not drawn) [Compound 4],MIC S. aureus,S. aureus,0.03 µg/mL
same,MIC H. flu,H. flu,0.25 µg/mL
same,MIC E. coli,E. coli,>8 µg/mL
same,MIC E. faecalis,E. faecalis,0.5 µg/mL
same,MIC S. pneumo.,S. pneumo.,0.25 ng/mL
COC1C=COC2(C)Oc3c(C)c(O)c4c(=O)c(c5oc6cc(N7CC8CCCNC8C7)cc(O)c6nc-5c4c3C2=O)NC(=O)C(C)=CC=CC(C)C(O)C(C)C(O)C(C)C(OC(C)=O)C1C (stereo not drawn) [Compound 5],MIC S. aureus,S. aureus,0.015 µg/mL
same,MIC H. flu,H. flu,2 µg/mL
same,MIC E. coli,E. coli,8 µg/mL
same,MIC E. faecalis,E. faecalis,0.5 µg/mL
same,MIC S. pneumo.,S. pneumo.,0.25 ng/mL
COC1C=COC2(C)Oc3c(C)c(O)c4c(=O)c(c5oc6cc(N7CC8CCCNC8C7)cc(O)c6nc-5c4c3C2=O)NC(=O)C(C)=CC=CC(C)C(O)C(C)C(O)C(C)C(O)C1C (stereo not drawn) [Compound 7],MIC S. aureus,S. aureus,0.12 µg/mL
same,MIC H. flu,H. flu,4 µg/mL
same,MIC E. coli,E. coli,>8 µg/mL
same,MIC E. faecalis,E. faecalis,4 µg/mL
same,MIC S. pneumo.,S. pneumo.,4 ng/mL
CO[C@H]1/C=C/O[C@@]2(C)Oc3c(C)c(O)c4c(=O)c(c5oc6cc(N7CCC(N8CCOCC8)CC7)cc(O)c6nc-5c4c3C2=O)NC(=O)/C(C)=C\C=C\[C@H](C)[C@H](O)[C@@H](C)[C@@H](O)[C@@H](C)[C@H](OC(C)=O)[C@@H]1C [Compound 9],MIC S. aureus,S. aureus,0.015 µg/mL
same,MIC H. flu,H. flu,2 µg/mL
same,MIC E. coli,E. coli,8 µg/mL
same,MIC E. faecalis,E. faecalis,2 µg/mL
same,MIC S. pneumo.,S. pneumo.,1 ng/mL
CO[C@H]1/C=C/O[C@@]2(C)Oc3c(C)c(O)c4c(=O)c(c5oc6cc(N7CC8CCC(C7)N8)cc(O)c6nc-5c4c3C2=O)NC(=O)/C(C)=C\C=C\[C@H](C)[C@H](O)[C@@H](C)[C@@H](O)[C@@H](C)[C@H](OC(C)=O)[C@@H]1C [Compound 10],MIC S. aureus,S. aureus,0.008 µg/mL
same,MIC H. flu,H. flu,2 µg/mL
same,MIC E. coli,E. coli,>8 µg/mL
same,MIC E. faecalis,E. faecalis,1 µg/mL
same,MIC S. pneumo.,S. pneumo.,0.12 ng/mL
CO[C@H]1/C=C/O[C@@]2(C)Oc3c(C)c(O)c4c(=O)c(c5oc6cc(N7CCC(N8CCOCC8)CC7)cc(O)c6nc-5c4c3C2=O)NC(=O)/C(C)=C\C=C\[C@H](C)[C@H](O)[C@@H](C)[C@@H](O)[C@@H](C)[C@H](O)[C@@H]1C [Compound 11],MIC S. aureus,S. aureus,0.004 µg/mL
same,MIC H. flu,H. flu,1 µg/mL
same,MIC E. coli,E. coli,4 µg/mL
same,MIC E. faecalis,E. faecalis,0.25 µg/mL
same,MIC S. pneumo.,S. pneumo.,0.12 ng/mL
COC1C=COC2(C)Oc3c(C)c(O)c4c(=O)c(c5oc6cc(N7CC8CCCNC8C7)cc(O)c6nc-5c4c3C2=O)NC(=O)C(C)=CC=CC(C)C(O)C(C)C(O)C(C)C(OC(C)=O)C1C (stereo not drawn) [Compound 12],MIC S. aureus,S. aureus,0.004 µg/mL
same,MIC H. flu,H. flu,0.25 µg/mL
same,MIC E. coli,E. coli,8 µg/mL
same,MIC E. faecalis,E. faecalis,0.12 µg/mL
same,MIC S. pneumo.,S. pneumo.,0.25 ng/mL
CO[C@H]1/C=C/O[C@@]2(C)Oc3c(C)c(O)c4c(=O)c(c5oc6cc(N7CCC(NC(=O)OCC(C)C)CC7)cc(O)c6nc-5c4c3C2=O)NC(=O)/C(C)=C\C=C\[C@H](C)[C@H](O)[C@@H](C)[C@@H](O)[C@@H](C)[C@H](OC(C)=O)[C@@H]1C [Compound 13],MIC S. aureus,S. aureus,0.008 µg/mL
same,MIC H. flu,H. flu,2 µg/mL
same,MIC E. coli,E. coli,4 µg/mL
same,MIC E. faecalis,E. faecalis,0.5 µg/mL
same,MIC S. pneumo.,S. pneumo.,0.12 ng/mL
COC1C=COC2(C)Oc3c(C)c(O)c4c(=O)c(c5oc6cc(N7CC8CCCNC8C7)cc(O)c6nc-5c4c3C2=O)NC(=O)C(C)=CC=CC(C)C(O)C(C)C(O)C(C)C(O)C1C (stereo not drawn) [Compound 15],MIC S. aureus,S. aureus,0.03 µg/mL
same,MIC H. flu,H. flu,1 µg/mL
same,MIC E. coli,E. coli,>8 µg/mL
same,MIC E. faecalis,E. faecalis,0.25 µg/mL
same,MIC S. pneumo.,S. pneumo.,2 ng/mL
CO[C@H]1/C=C/O[C@@]2(C)Oc3c(C)c(O)c4c(=O)c(c5oc6cc(N7CC8CCC(C7)N8)cc(O)c6nc-5c4c3C2=O)NC(=O)/C(C)=C\C=C\[C@H](C)[C@H](O)[C@@H](C)[C@@H](O)[C@@H](C)[C@H](O)[C@@H]1C [Compound 16],MIC S. aureus,S. aureus,0.015 µg/mL
same,MIC H. flu,H. flu,0.25 µg/mL
same,MIC E. coli,E. coli,4 µg/mL
same,MIC E. faecalis,E. faecalis,0.12 µg/mL
same,MIC S. pneumo.,S. pneumo.,1 ng/mL
CO[C@H]1/C=C/O[C@@]2(C)Oc3c(C)c(O)c4c(=O)c(c5oc6c7c(cc(O)c6nc-5c4c3C2=O)N(Cc2ccccc2)CCN7Cc2ccccc2)NC(=O)/C(C)=C\C=C\[C@H](C)[C@H](O)[C@@H](C)[C@@H](O)[C@@H](C)[C@H](OC(C)=O)[C@@H]1C [Compound 85],MIC S. aureus,S. aureus,2 µg/mL
same,MIC H. flu,H. flu,>8 µg/mL
same,MIC E. coli,E. coli,>8 µg/mL
same,MIC F. faecalis,E. faecalis; Table 2,8 µg/mL
CO[C@H]1/C=C/O[C@@]2(C)Oc3c(C)c(O)c4c(=O)c(c5oc6cc(N7CCN(c8ccccc8)CC7)cc(O)c6nc-5c4c3C2=O)NC(=O)/C(C)=C\C=C\[C@H](C)[C@H](O)[C@@H](C)[C@@H](O)[C@@H](C)[C@H](O)[C@@H]1C [Compound 102],MIC S. aureus,S. aureus,0.004 µg/mL
same,MIC H. flu,H. flu,0.25 µg/mL
same,MIC E. coli,E. coli,4 µg/mL
same,MIC E. faecalis,E. faecalis,0.06 µg/mL
CO[C@H]1/C=C/O[C@@]2(C)Oc3c(C)c(O)c4c(=O)c(c5oc6c(F)cc(F)cc6nc-5c4c3C2=O)NC(=O)/C(C)=C\C=C\[C@H](C)[C@H](O)[C@@H](C)[C@@H](O)[C@@H](C)[C@H](O)[C@@H]1C [Compound 137],MIC S. aureus,S. aureus,0.12 µg/mL
same,MIC H. flu,H. flu,2 µg/mL
same,MIC E. coli,E. coli,>8 µg/mL
same,MIC E. faecalis,E. faecalis,1 µg/mL

# — patent US20070142392A1, “Uses of rifamycins” (ActivBiotics, Inc., priority 2005, published 2007)
